Where a name gives a salt, the structure may show the parent alone. Some results are limits rather than exact numbers.

The target in one experiment is T1, TAK1-TAB1 fusion protein (Homo sapiens, UniProt O43318).
T1 construct: purchased Carna
T1 sequence (O43318 with tags, fused parts or gaps limits assumed): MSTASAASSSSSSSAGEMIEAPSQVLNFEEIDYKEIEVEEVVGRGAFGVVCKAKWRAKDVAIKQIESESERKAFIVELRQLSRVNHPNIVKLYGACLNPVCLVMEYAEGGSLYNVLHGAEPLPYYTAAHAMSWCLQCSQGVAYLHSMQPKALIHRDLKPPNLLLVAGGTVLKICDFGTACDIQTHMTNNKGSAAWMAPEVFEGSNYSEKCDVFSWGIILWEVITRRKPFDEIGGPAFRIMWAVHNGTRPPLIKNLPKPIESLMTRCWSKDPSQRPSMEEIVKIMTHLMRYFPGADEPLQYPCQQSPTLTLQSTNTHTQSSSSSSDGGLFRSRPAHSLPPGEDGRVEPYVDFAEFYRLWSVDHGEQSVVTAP
The experiment can be described thus: TAK1 biochemical assay (AlphaScreen, GST-MAP2K7 substrate). To be noted: TAK1-TAB1 fusion protein, GST-MAP2K7 substrate; read-out: mean TAK1 IC50 (Col. A). A general note: Bead proximity is the source of the signal in Alpha formats.

In another experiment the test system is pJNK in HCT-116 cells. Nature of the experiment: Phospho-JNK (Thr183/Tyr185) Meso Scale ELISA assay, TNFα-stimulated HCT-116 cells. In kind it is cell-based. The note with it: Homo sapiens, read-out: mean HCT-116 pJNK ELISA IC50 (Col. B). The gist of the method:
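Meso Scale ELISA read of phospho-JNK (Thr183/Tyr185) in lysed HCT-116 cells. Cells were serum-reduced to 1% FCS for 2 hours, exposed to test drug for 4 hrs at 37° C, then given 10 ng/mL TNFα (final) for 10 minutes before lysis.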
On the technique in general: In an ELISA, binding on a coated surface is turned into a signal by an enzyme label.

A further experiment has as its system p-p38 in HCT-116 cells. Nature of the experiment: Phospho-p38 Meso Scale ELISA assay, TNFα-stimulated HCT-116 cells. It is filed as cell-based. The note with it: Homo sapiens, read-out: mean HCT-116 p-p38 ELISA IC50 (Col. C). The procedure:
Detailed below are ELISA assays for pJNK and p38, and a TAK1 biochemical assay. […] In Table 1, Col.
• 1. Plate HCT-116 cells at 25,000 per well in 100 uL in 96 well clear dishes in normal growth medium. Day 2: • 1. Aspirate medium and replace with 90 μl reduced serum growth medium (1% FCS), incubate for 2 hours at 37° C. • 2. Make drugs at 10× in reduced serum medium and add 10 uL per well. • 3. Incubate at 37° C. for 4 hrs. • 4. Bring capture plates to room temperature. • 5. Block with 150 μl Blocking Solution (provided with kit) (600 mg Blocker A into 20 mL 1× Wash Buffer per plate) at room temperature with shaking. • 6. Wash plates 4× with 200 μl 1× wash buffer (10× provided with kit) before transferring lysates. • 7. Dilute TNFα to […] in reduced serum medium (this makes a 10× working stock). • 8. Add 10 μl TNFα to all wells except negative control wells, final concentration is 10 ng/mL. • 9. Incubate at 37° C. for 10 minutes. • 10. Remove medium by flicking into sink • 11. Wash cells with 100 uL ice cold PBS. • 12. Remove PBS by flicking into sink and patting on paper towels. • 13. Lyse cells in 50 μl ice cold 1× Complete Lysis Buffer plus Phosphatase and Protease inhibitors (all provided with kit) (10 mL Tris Lysis Buffer+200 μl Protease inhibitor solution+100 μl Phosphatase inhibitor I+100 μl Phosphatase inhibitor II). • 14. Incubate with shaking at 4° C. for 30 minutes. • 15. Transfer 45 μl to capture plate, cover with adhesive cover, and incubate at 4° C. over night with shaking. • Day 3: • 1. Wash plates 4× with 200 μl 1× wash buffer (10× provided with kit). • 2. […] Incubate at room temperature with shaking for 1 hour. • 4. Wash 4× with 200 μl 1× Wash Buffer. • 5. […] Read on Sector Imager. Phospho-p38 Meso Scale ELISA Assay Day 1: • 1. Plate HCT-116 cells at 25,000 per well in 100 uL in 96 well clear dishes in normal growth medium. zday 2: • 1. Aspirate medium and replace with 90 μl reduced serum growth medium (1% FCS), incubate for 2 hours at 37° C. • 2. Make drugs at 10× in reduced serum medium and add 10 uL per well. • 3. Incubate at 37° C. for 4 hrs. • 4. Bring capture plates to room temperature. • 5. Block with 150 μl Blocking Solution (provided with kit) (600 mg Blocker A into 20 mL 1× Wash Buffer per plate) at room temperature with shaking. • 6. Wash plates 4× with 200 μl 1× wash buffer (10× provided with kit) before transferring lysates. • 7. Dilute TNFα to […] in reduced serum medium (this makes a 10× working stock). • 8. Add 10 μl TNFα to all wells except negative control wells, final concentration is 10 ng/mL. • 9. Incubate at 37° C. for 10 minutes. • 10. Remove medium by flicking into sink • 11. Wash cells with 100 uL ice cold PBS. • 12. Remove PBS by flicking into sink and patting on paper towels. • 13. Lyse cells in 50 μl ice cold 1× Complete Lysis Buffer plus phosphatase and protease inhibitors (all provided with kit) (10 mL Tris Lysis Buffer+200 μl Protease inhibitor solution+100 μl Phosphatase inhibitor I+100 μl Phosphatase inhibitor II). • 14. Incubate with shaking at 4° C. for 30 minutes. • 15. Dilute lysates before transferring to capture plate with 100 μl Complete p38 Lysate • Dilution Buffer (provided with kit) (10 mL of Diluent 20±200 μl Protease inhibitor solution+100 μl Phosphatase inhibitor I+100 μl Phosphatase inhibitor II). • 16. Transfer 50 μl of diluted lysates to capture plate, cover with adhesive cover, and incubate at 4° C. over night with shaking. Day 3: • 1. Wash plates 4× with 200 μl 1× wash buffer (10× provided with kit). • 2. […] Incubate at room temperature with shaking for 1 hour. • 4. Wash 4× with 200 μl 1× Wash Buffer. • 5. […] Read on Sector Imager. TAK1 Biochemical Assay

For orientation: IC50 means the concentration that inhibits the measured activity by half. As to `CC(=O)N1CCC(n2cc(-c3cnc(N)c4oc(-c5ccc(O)cc5)cc34)cn2)CC1` [Example 120, 1-(4-{4-[7-amino-2-(4-hydroxyphenyl)furo[2,3-c]pyridin-4-yl]-1H-pyrazol-1-yl}piperidin-1-yl)ethanone], the half-maximal inhibitory concentration (IC50) on TAK1-TAB1 fusion protein, in the experiment with pJNK in HCT-116 cells and in the experiment on p-p38 in HCT-116 cells was 100 to 1000 nM each time.

For `Nc1ncc(-c2cnn(C3CCNCC3)c2)c2cc(-c3ccc4[nH]ccc4c3)oc12` [Example 38, 2-(1H-indol-5-yl)-4-[1-(piperidin-4-yl)-1H-pyrazol-4-yl]furo[2,3-c]pyridin-7-amine], the concentration for half-maximal inhibition (IC50) at TAK1-TAB1 fusion protein was 100 to 1000 nM; in the experiment with pJNK in HCT-116 cells, 1000 to 10000 nM; in the experiment on p-p38 in HCT-116 cells, 1000 to 10000 nM.

Take `CC(=O)N1CCC(n2cc(-c3cnc(N)c4oc(-c5cc(C(F)(F)F)cc(C(F)(F)F)c5)cc34)cn2)CC1` [Example 91, 1-[4-(4-{7-amino-2-[3,5-bis(trifluoromethyl)phenyl]furo[2,3-c]pyridin-4-yl}-1H-pyrazol-1-yl)piperidin-1-yl]ethanone]: the IC50 on TAK1-TAB1 fusion protein is greater than 10000 nM; in the experiment on pJNK in HCT-116 cells, 1000 to 10000 nM; in the experiment on p-p38 in HCT-116 cells, 1000 to 10000 nM.

For the compound `CC(=O)N1CCC(n2cc(-c3cnc(N)c4oc(-c5cccc6cnccc56)cc34)cn2)CC1` [Example 81, 1-(4-{4-[7-amino-2-(isoquinolin-5-yl)furo[2,3-c]pyridin-4-yl]-1H-pyrazol-1-yl}piperidin-1-yl)ethanone], the 50% inhibitory concentration (IC50) on TAK1-TAB1 fusion protein, in the experiment with pJNK in HCT-116 cells and in the experiment with p-p38 in HCT-116 cells was 100 to 1000 nM in each case.

Regarding `Cc1nn(CC(C)(C)O)cc1-c1cnc(N)c2oc(-c3csc4cnccc34)cc12` [Example 289, 1-[4-(7-amino-2-thieno[2,3-c]pyridin-3-yl-furo[2,3-c]pyridin-4-yl)-3-methyl-pyrazol-1-yl]-2-methyl-propan-2-ol], the IC50 on TAK1-TAB1 fusion protein lay in the range of 1000 to 10000 nM; with pJNK in HCT-116 cells, 100 to 1000 nM; with p-p38 in HCT-116 cells, 1000 to 10000 nM.

Regarding `CC(=O)N1CCC(n2cc(-c3cnc(N)c4oc(-c5cccc(CO)c5)cc34)cn2)CC1` [Example 169, 1-[4-(4-{7-amino-2-[3-(hydroxymethyl)phenyl]furo[2,3-c]pyridin-4-yl}-1H-pyrazol-1-yl)piperidin-1-yl]ethanone], the concentration for half-maximal inhibition (IC50) on TAK1-TAB1 fusion protein is 100 to 1000 nM; with pJNK in HCT-116 cells, 100 to 1000 nM; in the experiment with p-p38 in HCT-116 cells, 1000 to 10000 nM.

For `CC(=O)N1CCC(n2cc(-c3cnc(N)c4oc(-c5cccc(O)c5)cc34)cn2)CC1` [Example 132, 1-(4-{4-[7-amino-2-(3-hydroxyphenyl)furo[2,3-c]pyridin-4-yl]-1H-pyrazol-1-yl}piperidin-1-yl)ethanone], the IC50 at TAK1-TAB1 fusion protein was less than 100 nM; in the experiment on pJNK in HCT-116 cells, 100 to 1000 nM; with p-p38 in HCT-116 cells it was 100 to 1000 nM.

`Nc1ncc(-c2cn[nH]c2)c2cc(-c3cccc4cnccc34)oc12` [Example 69, 2-(isoquinolin-5-yl)-4-(1H-pyrazol-4-yl)furo[2,3-c]pyridin-7-amine]: the figures for the IC50 on TAK1-TAB1 fusion protein, in the experiment on pJNK in HCT-116 cells and in the experiment with p-p38 in HCT-116 cells were 1000 to 10000 nM, 100 to 1000 nM and 100 to 1000 nM, respectively.

On to `CC(=O)N1CCC(n2cc(-c3cnc(N)c4oc(-c5ccc(S(C)(=O)=O)cc5)cc34)cn2)CC1` [Example 129, 1-[4-(4-{7-amino-2-[4-(methylsulfonyl)phenyl]furo[2,3-c]pyridin-4-yl}-1H-pyrazol-1-yl)piperidin-1-yl]ethanone], for which the IC50 on TAK1-TAB1 fusion protein, in the experiment with pJNK in HCT-116 cells and with p-p38 in HCT-116 cells was greater than 10000 nM in each case.

`Nc1ncc(-c2cnn([C@H]3CC[C@H](O)CC3)c2)c2cc(-c3c(F)ccc4cnsc34)oc12` [Example 240, trans-4-{4-[7-amino-2-(6-fluoro-1,2-benzothiazol-7-yl)furo[2,3-c]pyridin-4-yl]-1H-pyrazol-1-yl}cyclohexanol diformate salt]: the results for the IC50 at TAK1-TAB1 fusion protein, in the experiment on pJNK in HCT-116 cells and in the experiment on p-p38 in HCT-116 cells were 100 to 1000 nM, less than 100 nM and 100 to 1000 nM, respectively.

For the compound `Nc1ncc(-c2cnn(C3CCN(CCF)CC3)c2)c2cc(-c3cccc4cnccc34)oc12` [Example 83, 4-{1-[1-(2-fluoroethyl)piperidin-4-yl]-1H-pyrazol-4-yl}-2-(isoquinolin-5-yl)furo[2,3-c]pyridin-7-amine], the concentration for half-maximal inhibition (IC50) at TAK1-TAB1 fusion protein is 100 to 1000 nM; in the experiment with pJNK in HCT-116 cells, less than 100 nM; in the experiment on p-p38 in HCT-116 cells, 100 to 1000 nM.

On to `CC(=O)N1CCC(n2cc(-c3cnc(N)c4oc(-c5c[nH]c6cc(C#N)ccc56)cc34)cn2)CC1` [Example 222, 3-{4-[1-(1-acetylpiperidin-4-yl)-1H-pyrazol-4-yl]-7-aminofuro[2,3-c]pyridin-2-yl}-1H-indole-6-carbonitrile], for which the IC50 at TAK1-TAB1 fusion protein, with pJNK in HCT-116 cells and in the experiment with p-p38 in HCT-116 cells was 100 to 1000 nM each time.

Turning to `CC(=O)N1CCC(n2cc(-c3cnc(N)c4oc(-c5cncc6cnsc56)cc34)cn2)CC1` [Example 262, 1-(4-{4-[7-amino-2-([1,2]thiazolo[4,5-c]pyridin-7-yl)furo[2,3-c]pyridin-4-yl]-1H-pyrazol-1-yl}piperidin-1-yl)ethanone Diformate Salt], the 50% inhibitory concentration (IC50) at TAK1-TAB1 fusion protein, in the experiment on pJNK in HCT-116 cells and in the experiment with p-p38 in HCT-116 cells was 100 to 1000 nM each time.

Consider `Nc1ncc(-c2cnn(C3CCN(CCO)CC3)c2)c2cc(-c3cccc4cnccc34)oc12` [Example 85, 2-(4-{-4-[7-amino-2-(isoquinolin-5-yl)furo[2,3-c]pyridin-4-yl]-1H-pyrazol-1-yl}piperidin-1-yl)ethanol], for which the IC50 at TAK1-TAB1 fusion protein, in the experiment with pJNK in HCT-116 cells and in the experiment on p-p38 in HCT-116 cells was 100 to 1000 nM each time.

Take `CC(=O)N1CCC(n2cc(-c3cnc(N)c4oc(-c5ccc6nn(C)cc6c5)cc34)cn2)CC1` [Example 145, 1-(4-{4-[7-amino-2-(2-methyl-2H-indazol-5-yl)furo[2,3-c]pyridin-4-yl]-1H-pyrazol-1-yl}piperidin-1-yl)ethanone]: the concentration for half-maximal inhibition (IC50) at TAK1-TAB1 fusion protein is greater than 10000 nM; with pJNK in HCT-116 cells, 1000 to 10000 nM; in the experiment with p-p38 in HCT-116 cells, 1000 to 10000 nM.

Consider `CC(=O)N1CCC(n2cc(-c3cnc(N)c4oc(-c5csc6ccccc56)cc34)cn2)CC1` [Example 219, 1-(4-{4-[7-amino-2-(1-benzothiophen-3-yl)furo[2,3-c]pyridin-4-yl]-1H-pyrazol-1-yl}piperidin-1-yl)ethanone], for which the concentration for half-maximal inhibition (IC50) on TAK1-TAB1 fusion protein, in the experiment with pJNK in HCT-116 cells and in the experiment with p-p38 in HCT-116 cells was 100 to 1000 nM each time.

Source of the values: patent publication US8378104B2 (OSI Pharmaceuticals, LLC, priority 2010, dated 2013).
